Columns and labels:
[1] = target: T1, 3',5'-cyclic-AMP phosphodiesterase 4D (Homo sapiens, UniProt Q08499); assay: Inhibition of PDE4D7 (unknown origin) using FAM-cyclic-3',5'-AMP as substrate at 1 microM incubated for 1 hrs by fluorescence polarization based IMAP assay relative to control
[2] = target: T1, 3',5'-cyclic-AMP phosphodiesterase 4D; assay: Inhibition of PDE4D7 (unknown origin) using FAM-cyclic-3',5'-AMP as substrate at 100 nM incubated for 1 hrs by fluorescence polarization based IMAP assay relative to control
[3] = target: T1, 3',5'-cyclic-AMP phosphodiesterase 4D; assay: Inhibition of PDE4D7 (unknown origin) using FAM-cyclic-3',5'-AMP as substrate at 10 nM incubated for 1 hrs by fluorescence polarization based IMAP assay relative to control
[4] = Toxicity in ketamine/xylazine-induced anesthetic C57BL/6J mouse model assessed as emetogenic potential by measuring reduction in anesthesia duration at 0.5 mg/kg, po preadministered with compound for 15 mins followed by ketamine/xylazine administration; type: organism-based; conditions: in vivo, 0.25 h
[5] = target: T1, 3',5'-cyclic-AMP phosphodiesterase 4D; assay: Inhibition of PDE4D7 (unknown origin) using FAM-cyclic-3',5'-AMP as substrate incubated for 1 hrs by fluorescence polarization based IMAP assay
[6] = Chemical stability of compound in aqueous solution at pH >10 measured after 48 hrs; type: physicochemical; conditions: buffer
[7] = Chemical stability of compound in aqueous solution at pH <6 measured after 48 hrs; type: physicochemical; conditions: buffer
HT-22 = assay: Cytotoxicity against mouse HT-22 cells assessed as reduction in cell viability at 30 uM incubated for 48 hrs by MTT assay; type: toxicity, cell-based; conditions: ht-22, 48 h
SH-SY5Y = assay: Cytotoxicity against human SH-SY5Y cells assessed as reduction in cell viability at 20 uM incubated for 48 hrs by MTT assay; type: toxicity, cell-based
[8] = Oral bioavailability in Sprague-Dawley rat at 5 mg/kg measured after 24 hrs by LC-MS/MS analysis; type: ADME, organism-based; conditions: in vivo

T1 sequence (Q08499 whole entry): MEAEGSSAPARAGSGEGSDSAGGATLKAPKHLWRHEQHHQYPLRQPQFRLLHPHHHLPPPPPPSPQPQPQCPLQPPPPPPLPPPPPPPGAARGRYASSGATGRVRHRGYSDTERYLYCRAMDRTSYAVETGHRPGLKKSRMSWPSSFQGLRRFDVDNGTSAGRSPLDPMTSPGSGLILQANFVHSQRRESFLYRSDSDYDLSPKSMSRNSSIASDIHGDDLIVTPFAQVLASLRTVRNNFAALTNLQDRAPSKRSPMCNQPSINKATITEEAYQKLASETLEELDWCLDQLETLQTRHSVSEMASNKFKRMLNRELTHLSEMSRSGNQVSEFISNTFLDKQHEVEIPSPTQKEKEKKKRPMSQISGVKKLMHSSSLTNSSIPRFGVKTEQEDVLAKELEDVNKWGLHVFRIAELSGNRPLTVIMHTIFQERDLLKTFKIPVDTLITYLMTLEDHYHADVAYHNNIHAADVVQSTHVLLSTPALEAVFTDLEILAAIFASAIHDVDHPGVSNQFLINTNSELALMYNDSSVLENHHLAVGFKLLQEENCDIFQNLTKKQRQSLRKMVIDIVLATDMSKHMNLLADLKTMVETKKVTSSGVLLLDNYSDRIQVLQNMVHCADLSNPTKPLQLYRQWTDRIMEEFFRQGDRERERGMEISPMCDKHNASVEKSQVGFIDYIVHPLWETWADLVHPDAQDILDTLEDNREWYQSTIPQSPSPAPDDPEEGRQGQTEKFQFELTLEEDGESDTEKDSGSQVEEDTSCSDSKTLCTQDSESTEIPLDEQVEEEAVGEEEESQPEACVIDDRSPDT

| SMILES | inhibition [2] [%] | inhibition [3] [%] | other results |
| --- | --- | --- | --- |
| FC(F)(F)COc1nc(Cl)cc2c1cnn2C1CCOCC1 | 16 | – | inhibition [1]: 35% |
| Clc1cc2c(cnn2C2CCOCC2)c(OC2CCCC2)n1 | 5 | – | inhibition [1]: 10% |
| CCOc1nc(Cl)cc2nn(C3CCOCC3)cc12 | 35 | – | – |
| CCOc1nc(Cl)cc2c1c(/C=C/c1ccc(OC)cc1)nn2CCCC(=O)O | 5 | 2 | – |
| CCOc1nc(Cl)cc2c1c(Nc1ccccc1)nn2CCCC(=O)O | 9 | 7 | – |
| CCOc1nc(Cl)cc2c1cnn2-c1cccc(OC)c1 | 7 | – | – |
| CNc1nc(Cl)cc2nn(C3CCOCC3)cc12 | 17 | – | – |
| CCOc1nc(-c2ccsc2)cc2c1cnn2C1CCOCC1 | 3 | – | inhibition [1]: 4% |
| O=C(Nc1c(Cl)cncc1Cl)c1ccc(OC(F)F)c(OCC2CC2)c1 [ROFLUMILAST] | – | – | Activity [4]: Toxic |
| CCOc1nc(C(N)=O)cc2c1cnn2C1CCOCC1 | 6 | – | inhibition [1]: 12% |
| CCOc1nc(Cl)cc2nn(CCCC(=O)O)cc12 | 8 | 6 | – |
| CCOc1nc(Cl)cc2c1c(C(F)(F)F)nn2CCCC(=O)O | 53 | 23 | – |
| CCOc1cc([C@@H](CS(C)(=O)=O)N2C(=O)c3cccc(NC(C)=O)c3C2=O)ccc1OC [APREMILAST] | – | – | Activity [4]: Toxic |
| CCOc1nc(Cl)cc2c1cnn2CC1CCCO1 (stereo not given) | 4 | – | – |
| COc1nc(Cl)cc2c1cnn2C1CCOCC1 | 35 | – | inhibition [1]: 75% |
| CCOc1nc(Cl)cc2c1c(-c1ccc(OC)cc1)nn2CCCC(=O)O | 16 | 7 | – |
| CCOc1nc(Cl)cc2c1c(C1CCCCC1)nn2CCCC(=O)O | 11 | 6 | – |
| CCOc1nc(Cl)cc2c1c(C1CC1)nn2CCCC(=O)O | 13 | 8 | – |
| CCOc1nc(-c2cccs2)cc2c1cnn2C1CCOCC1 | 4 | – | inhibition [1]: 23% |

| SMILES | inhibition [2] [%] | inhibition [3] [%] | other results |
| --- | --- | --- | --- |
| CCOc1nc(Cl)cc2c1cnn2CC(=O)NOC | 6 | 4 | – |
| CCOc1nc(Cl)cc2c1cnn2-c1ccc(OC)cc1 | 5 | – | – |
| CCOc1nc(Cl)cc2c1cnn2CCCCO | 6 | 5 | – |
| CCOc1nc(Cl)nc2c1cnn2C1CCOCC1 | – | – | Stability [6]: Unstable; Stability [7]: Unstable |
| CCOc1nc(Cl)cc2c1cnn2CCO | 4 | 3 | – |
| Clc1cc2c(cnn2C2CCOCC2)c(OC2CC2)n1 | 4 | – | inhibition [1]: 8% |
| CCOc1nc(Cl)cc2nn(CCCO)cc12 | 53 | 21 | Activity (HT-22): Non-Toxic; IC50 [5]: 71.3 nM; Activity (SH-SY5Y): Non-Toxic |
| CC(C)NC(=O)c1ccc(OC(F)F)c(OCC2CC2)c1 | – | – | bioavailability [8]: 1.2% |
| CCOc1nc(Cl)cc2c1c(NCc1ccccc1)nn2CCCC(=O)O | 18 | 4 | – |
| CCOc1nc(C(C)=O)cc2c1cnn2C1CCOCC1 | 6 | – | inhibition [1]: 9% |
| CCOc1nc(Cl)cc2c1cnn2CC(=O)NC | 4 | 4 | – |
| CCOc1nc(Cl)cc2c1cnn2Cc1cccnc1 | 5 | – | – |
| CCOc1nc(-c2ccccc2)cc2c1cnn2C1CCOCC1 | 14 | – | inhibition [1]: 32% |
| CCOc1nc(Cl)cc2nn(CCC(=O)NO)cc12 | 66 | 25 | IC50 [5]: 38.7 nM |
| CCOc1nc(Cl)cc2nn(-c3cccc(OC)c3)cc12 | 8 | – | – |
| CCOc1nc(Cl)cc2c1cnn2CCCO | 8 | 5 | – |
| CCOc1nc(Cl)cc2nn(CCCCO)cc12 | 3 | 4 | – |
| CCOc1nc(Cl)cc2c1cnn2CC#N | 5 | 3 | – |
| CCOc1nc(Cl)cc2c1cnn2CCCC(=O)NO | 19 | 5 | – |

Now from value to molecule, other results behind:

| inhibition [2] [%] | inhibition [3] [%] | SMILES | other results |
| --- | --- | --- | --- |
| 15 | – | CNc1nc(Cl)cc2c1cnn2C1CCCC1 | inhibition [1]: 59% |
| 3 | 3 | CCOc1nc(Cl)cc2c1cnn2CC(=O)O | – |
| 2 | – | CCCOc1nc(Cl)cc2c1cnn2C1CCOCC1 | inhibition [1]: 5% |
| 5 | 6 | CCOc1nc(Cl)cc2nn(CCO)cc12 | – |
| 9 | 4 | CCOc1nc(Cl)cc2c1c(-c1cccnc1)nn2CCCC(=O)O | – |
| 3 | 3 | CCOc1nc(Cl)cc2c1cnn2CC(N)=O | – |
| 7 | – | CCOc1nc(Cl)cc2c1cnn2CC1(C)COC1 | – |
| 1 | – | CCOc1nccc2c1cnn2C1CCOCC1 | – |
| 7 | 5 | CCOc1nc(Cl)cc2nn(CC(=O)O)cc12 | – |
| 5 | – | CCOc1nc(C)cc2c1cnn2C1CCOCC1 | – |
| 11 | 6 | CCOc1nc(Cl)cc2c1c(C)nn2CCCC(=O)O | – |
| 19 | 8 | CCOc1nc(Cl)cc2c1cnn2CCC(=O)O | – |
| 0 | – | CNc1nc(Cl)cc2c1cnn2C1CCOCC1 | inhibition [1]: 0% |
| 63 | 18 | CCOc1nc(Cl)cc2nn(CCCC(=O)NO)cc12 | IC50 [5]: 51.7 nM |
| 68 | 41 | CCOc1nc(Cl)cc2c1cnn2CC(=O)NO | Activity (HT-22): Non-Toxic; IC50 [5]: 16.6 nM; Activity (SH-SY5Y): Non-Toxic |
| 69 | 36 | CCOc1nc(Cl)cc2nn(CC(=O)NO)cc12 | Activity (HT-22): Non-Toxic; IC50 [5]: 20.2 nM; Activity (SH-SY5Y): Non-Toxic |

| inhibition [2] [%] | inhibition [3] [%] | SMILES | other results |
| --- | --- | --- | --- |
| 27 | 6 | CCOc1nc(Cl)cc2c1c(NCC(C)C)nn2CCCC(=O)O | – |
| 5 | – | CCNc1nc(Cl)cc2c1cnn2C1CCCC1 | inhibition [1]: 28% |
| 14 | – | CCOc1nc(Cl)cc2c1cnn2C(C)c1ccc(C(F)(F)F)cc1 (stereo not given) | – |
| 24 | 5 | CCOc1nc(Cl)cc2c1c(-c1ccncc1)nn2CCCC(=O)O | – |
| 3 | – | CCOc1nc(Cl)cc2c1cnn2C1CCS(=O)(=O)CC1 | – |
| 10 | – | CCOc1nc(Cl)cc2nn(CC3CCCO3)cc12 (stereo not given) | – |
| 6 | 3 | CCOc1nc(Cl)cc2c1c(-c1cccc(OC)c1)nn2CCCC(=O)O | – |
| 48 | 15 | CCOc1nc(Cl)cc2c1c(CC)nn2CCCC(=O)O | – |
| 32 | – | CCOc1nc(C#N)cc2c1cnn2C1CCOCC1 | inhibition [1]: 82%; IC50 [5]: 230 nM |
| 8 | 5 | CCOc1nc(Cl)cc2c1cnn2CC(=O)N(C)O | – |
| 18 | 9 | CCOc1nc(Cl)cc2c1cnn2CCC(=O)NO | – |
| 9 | – | CCOc1nc(Cl)cc2c1cnn2CC1CCOC1 (stereo not given) | – |
| 12 | – | CC(C)Oc1nc(Cl)cc2c1cnn2C1CCOCC1 | inhibition [1]: 30% |
| 64 | – | CCOc1nc(Cl)cc2c1cnn2C1CCOCC1 | inhibition [1]: 95%; Stability [6]: Stable; Stability [7]: Stable; IC50 [5]: 92.7 nM |
| 5 | – | CCOc1nc(Cl)cc2c1cnn2C1CCSCC1 | – |

Reference: ChEMBL document CHEMBL5532675, “Discovery of 4-Ethoxy-6-chloro-5-azaindazoles as Novel PDE4 Inhibitors for the Treatment of Alcohol Use Disorder and Alcoholic Liver Diseases” (J Med Chem, 2024)
